Source: patent EP4732907A1, “STYRYL BENZOTHIAZOLIUM SALTS AND ITS USES AGAINST PARASITIC INFECTIONS” (priority 2024, dated 2026)

Key:
Format in all cases: cell-based
MRC-5 cell line = experiment: Cytotoxicity assay in MRC-5 cell line (alamarBlue assay, 72 h); conditions: Homo sapiens, MRC5, Table 3
Description: Cell culture: Cell culture media were purchased from Gibco (Grand Island, NY, USA). Fetal bovine serum (FBS) was a product of Harlan-Seralab (Belton, U.K.). Supplements and other chemicals not listed in this section were obtained from Sigma Chemicals Co. (St. Louis, Mo., USA). Plastics for cell culture were supplied by Thermo Scientific™ BioLite. All tested compounds were dissolved in DMSO at a concentration of 10 mg/mL and stored at -20°C until use. Cell lines were maintained in Dulbecco's modified Eagle's medium (DMEM) containing glucose (1 g/L), glutamine (2 mM), penicillin (50 IU/mL), streptomycin (50 µg/mL) and amphotericin (1.25 µg/mL), supplemented with 10% FBS.
The stock solutions of the compounds were prepared in DMSO, with the final DMSO concentration in each well maintained below 1%. […] Subsequently, the compounds were added at various concentrations ranging from 0 to 100 µM, and the plates were incubated for 72 h. After the incubation period, 20 µL of resazurin solution (110 ng/ml) were added to each well and cells were incubated for 4 h. Then, cells were lysed with 50 µL/well of 3% SDS. The plate was incubated at 37 °C for an additional hour and subsequently, the fluorescence intensity was measure at the Infinite F200 plate reader (TECAN Austria, GmbH), exciting at 550 nm and recording the emission at 590 nm. […] Data are presented as the average of at least three independent measurements, each conducted in triplicate conditions.

[1] = test system: L. major promastigotes (LucRE9); experiment: In vitro antileishmanial activity against Leishmania major promastigotes (MTT-based assay, 72 h); conditions: Table 3; for IC50: Leishmania major, promastigotes, 72 h, MTT
Description: Parasite culture: L. major promastigotes (LucRE9) were cultured at 28 °C in 5% CO2 in modified RPMI-1640 medium (Invitrogen, Carlsbad, CA) with 10% hiFBS.
The anti-leishmanial activity of the compounds was determined using MTT-based assay (Sigma-Aldrich) (Antimicrob Agents Chemother 2011, 55, 3838-3844). The stock solutions of the compounds were prepared in DMSO with a final DMSO percentage in each well maintained below 1%. 4 × 10^6 parasites per mL were incubated at 28 °C in 96-well plates (50 µL/well) either alone or in the presence of increasing concentration of compounds DMSO for 72 h. After the incubation period, 10 µL of MTT (5 mg/ml) was added to each well and parasites were incubated for 4 h at 28°C. Subsequently, cell lysis was performed using 50 µL/well of 20% SDS. The plate was then incubated at 37 °C for an additional hour and then absorbance was measured at a wavelength of 540 using an Infinite F200 plate reader (TECAN Austria, GmbH). The IC50 was calculated as described above. Data were presented as the average of at least three independent measurements, each conducted in triplicate conditions.

[2] = test system: Bloodstream forms (BSF) of T. brucei brucei 'single marker' S427 (S16); experiment: In vitro antitrypanosomal activity against Trypanosoma brucei (alamarBlue assay, 72 h); conditions: Table 3; IC50 MRC-5 / IC50 T.brucei
Source text: Data were presented as the average of at least three independent measurements, each conducted in triplicate conditions.

[3] = test system: THP1 cells (human monocytic cell line); experiment: Cytotoxicity assay on PMA-differentiated THP1 (alamarBlue assay, 72 h); conditions: THP-1, Table 4, PMA-differentiated THP1, 72 h
Description: Post-differentiation, the cells were washed and fresh medium was added (100 µL/well) before being reincubated. […] Data represent the average of three independent experiments, each conducted in triplicate.

[4] = test system: Leishmania major amastigotes; experiment: In vitro antileishmanial activity against Leishmania major amastigotes in THP1 cells (luciferase assay, 72 h); conditions: Table 4
Description: The antiparasitic activity of the compounds against the intracellular form of Leishmania major was evaluated using the Luciferase Assay System kit from Promega. […] Post-differentiation, the cells were washed and fresh medium was added (100 µL/well) before being reincubated. […] The plates were then incubated at 35°C in 5% CO2. After 24 hours, the wells were washed three times with PBS, and fresh medium with increasing concentrations of compounds was added (100 µL/well). After another 72 hours of incubation, the cells were then treated with 25 µL of lysis buffer and stored at -80°C. Following 24 hours, 25 µL of luciferase enzyme substrate was added to each well, and the luciferase activity of the amastigotes was determined using a TECAN Infinite F200 microplate reader. […] Data represent the average of three independent experiments, each conducted in triplicate.

SMILES | IC50 (MRC-5 cell line) [µM] | IC50 [1] [µM] | Selectivity Index (SI) T.brucei [2] | IC50 [3] [µM] | IC50 ([4]; Leishmania major, THP-1, intracellular amastigotes in THP1 macrophages, 72 h, read-out: IC50 (uM) L. major) [µM] | Selectivity Index (SI) MRC-5 ([4]; IC50 MRC-5 / IC50 L.major amastigotes) | Selectivity Index (SI) THP-1 ([4]; IC50 THP-1 / IC50 L. major amastigotes) | Selectivity Index (SI) L.major ([1]; IC50 MRC-5 / IC50 L.major promastigotes)
C[n+]1c(/C=C/c2cc3c4c(c2)CCCN4CCC3)sc2ccccc21 [Compound 3] | 0.08 ± 0.03 | 0.0065 ± 0.0029 | – | – | – | – | – | –
C[n+]1c(/C=C/c2ccc(N(c3ccccc3)c3ccccc3)cc2)sc2ccccc21 [Compound 2] | 5.13 ± 0.76 | 0.02 ± 0.011 | 15.1 | 0.93 ± 0.02 | 0.0281 ± 0.00473 | 182 | 33 | 252.0
CN(C)c1ccc(/C=C/c2sc3ccccc3[n+]2C)cc1 [Compound 1, (E)-2-(4-(Dimethylamino)styryl)-3-methylbenzo[d]thiazol-3-ium iodide] | 1.52 ± 0.37 | 0.02 ± 0.013 | – | – | – | – | – | –
